Results on two compounds are retold here after ChEMBL document CHEMBL3603754, “Mitochondria and DNA Targeting of 5,10,15,20-Tetrakis(7-sulfonatobenzo[b]thiophene) Porphyrin-Induced Photodynamic Therapy via Intrinsic and Extrinsic Apoptotic Cell Death” (J Med Chem, 2015).

As a reminder, the IC50 is the point on the concentration scale where inhibition reaches its midpoint. Low values mean higher potency, high ones lower potency.

The source made the active and inactive calls. No cut-off for these calls is given here.

Series [1] in a line: Intracellular uptake in human MCF7 cell nucleus at 10 uM after 4 hrs using Hoechst staining by fluorescence microscopic analysis. Format: ADME, cell-based. The settings on record: mcf7, 4 h.
The subject of series [2] is MCF7. Description: Induction of extrinsic apoptosis in human MCF7 cells assessed as increase of casepase-3 level at 6 uM treated for 1 hr followed by irradiated with 660 nm of diode laser light at 50mW for 30 mins measured after 45 mins using (z-DEVD)2-Magic Red by fluorescence assay. Format: functional, cell-based.
For series [3], the system named is MCF7. The experiment in a line: Photo-toxicity in human MCF7 cells treated for 24 hrs followed by irradiated with 660 nm of diode laser light at 50mW for 30 mins measured after 24 hrs by MTT assay. The settings on record: MCF7, light or radiation study. It counts as functional, cell-based. Background: Tetrazolium dyes change colour on reduction, which living cells bring about.

The subject of series [4] is MCF7. Description: Induction of mitochondrial membrane disruption in human MCF7 cells assessed as calcein-AM accumulation in cytosol treated for 1 hr followed by irradiated with 660 nm of diode laser light at 50mW for 30 mins measured after 45 mins by fluorescence assay. Format: functional, cell-based.
Series [5] is described as follows: Intracellular uptake in human MCF7 cell lysosomes at 10 uM after 4 hrs using Hoechst staining by fluorescence microscopic analysis. Format: ADME, cell-based, Lysosome. The settings on record: mcf7, 4 h.
Series [6] deals with MCF7. The experiment in a line: Induction of intrinsic apoptosis in human MCF7 cells assessed as increase of casepase-9 level at 3 to 5 uM treated for 1 hr followed by irradiated with 660 nm of diode laser light at 50mW for 30 mins measured after 45 mins using (Ac-LEHD)2-Rh110 by fluorescence assay in presence of caspase-2 inhibitor. Format: functional, cell-based.
Series [7] relates to MCF7. Description: Dark toxicity in human MCF7 cells up to 40 uM after 24 hrs by MTT assay. The settings on record: mcf7, 24 h. It counts as cell-based.
Series [8] has as its system MCF7. Description: Induction of extrinsic apoptosis in human MCF7 cells assessed as increase of casepase-3 level at 3 to 5 uM treated for 1 hr followed by irradiated with 660 nm of diode laser light at 50mW for 30 mins measured after 45 mins using (z-DEVD)2-Magic Red by fluorescence assay. Format: functional, cell-based.
A short description of series [9]: Intracellular uptake in human MCF7 cell mitochondria at 10 uM after 4 hrs using mitotracker green staining by fluorescence microscopic analysis. It counts as ADME. The settings on record: mcf7, 4 h.
Series [10] concerns MCF7. The experiment in a line: Induction of ROS production in human MCF7 cells treated for 1 hr followed by irradiated with 660 nm of diode laser light at 50mW for 30 mins using DCFDA by fluorescence microscopic analysis. It counts as functional, cell-based.
In series [11] the test system is MCF7. The experiment in a line: Induction of DNA fragmentation in human MCF7 cell nucleus treated at 5 uM followed by irradiated with 660 nm of diode laser light at 50mW for 30 mins by DNA ladder assay. It counts as functional, cell-based.
Series [12] relates to MCF7. The experiment in a line: Cellular uptake in human MCF7 cells assessed as increase of intracellular fluorescence after 1 hr using alexa fluor 488, phalloidin 488/525, mito-tracker 490/516 staining by FACS analysis relative to control. The settings on record: mcf7, 1 h. Format: ADME, cell-based. Background: Flow cytometry measures light scatter and fluorescence of single cells or particles in a stream.

In series [13] the test system is MCF7. Description: Induction of extrinsic apoptosis in human MCF7 cells assessed as increase of […] level at 6 uM treated for 1 hr followed by irradiated with 660 nm of diode laser light at 50mW for 30 mins measured after 45 mins using (z-IETD)2-Rh110 by fluorescence assay in presence of caspase-8 inhibitor Z-IETD-FMK. It counts as functional, cell-based.

A short description of series [14]: Intracellular uptake in human MCF7 cell mitochondria at 10 uM after 4 hrs using Hoechst staining by fluorescence microscopic analysis. Format: ADME. The settings on record: mcf7, 4 h.
Series [15] concerns MCF7. Description: Induction of mitochondrial membrane disruption in human MCF7 cells assessed as calcein-AM accumulation in mitochondria at 1 to 3 uM treated for 1 hr followed by irradiated with 660 nm of diode laser light at 50mW for 30 mins measured after 45 mins by fluorescence assay. It counts as functional, cell-based.
Series [16] in a line: Intracellular uptake in human MCF7 cell F-actin filament at 10 uM after 4 hrs using Hoechst staining by fluorescence microscopic analysis. The settings on record: mcf7, 4 h. Format: ADME, cell-based.
Series [17] has as its system MCF7. The experiment in a line: Cellular uptake in human MCF7 cells assessed as increase of intracellular fluorescence up to 60 mins using alexa fluor 488, phalloidin 488/525, mito-tracker 490/516 staining by fluorescence microscopic analysis. Format: ADME, cell-based. The settings on record: mcf7, 1 h.
Series [18] has as its system MCF7. Description: Induction of mitochondrial membrane disruption in human MCF7 cells assessed as calcein-AM accumulation in mitochondria treated for 1 hr followed by irradiated with 660 nm of diode laser light at 50mW for 30 mins measured after 45 mins by fluorescence assay. It counts as functional, cell-based.
The test system of series [19] is MCF7. Description: Induction of extrinsic apoptosis in human MCF7 cells assessed as increase of […] level at 6 uM treated for 1 hr followed by irradiated with 660 nm of diode laser light at 50mW for 30 mins measured after 45 mins using (z-IETD)2-Rh110 by fluorescence assay. It counts as functional, cell-based.
The subject of series [20] is MCF7. Description: Induction of extrinsic apoptosis in human MCF7 cells assessed as increase of casepase-3 level at 6 uM treated for 1 hr followed by irradiated with 660 nm of diode laser light at 50mW for 30 mins measured after 45 mins using (z-DEVD)2-Magic Red by fluorescence assay in presence of caspase-8 inhibitor Z-IETD-FMK. It counts as functional, cell-based.

Series [21] concerns MCF7. The experiment in a line: Induction of intrinsic apoptosis in human MCF7 cells assessed as increase of casepase-9 level at 3 to 5 uM treated for 1 hr followed by irradiated with 660 nm of diode laser light at 50mW for 30 mins measured after 45 mins using (Ac-LEHD)2-Rh110 by fluorescence assay. It counts as functional, cell-based.
In series [22] the test system is MCF7. The experiment in a line: Induction of extrinsic apoptosis in human MCF7 cells assessed as increase of casepase-3 level at 5 uM treated for 1 hr followed by irradiated with 660 nm of diode laser light at 50mW for 30 mins measured after 45 mins using (z-DEVD)2-Magic Red by fluorescence assay in presence of caspase-2 inhibitor. It counts as functional, cell-based.

For series [23], the system named is MCF7. The experiment in a line: Induction of extrinsic apoptosis in human MCF7 cells assessed as increase of casepase-3 level at 5 uM treated for 1 hr followed by irradiated with 660 nm of diode laser light at 50mW for 30 mins measured after 45 mins using (z-DEVD)2-Magic Red by fluorescence assay. It counts as functional, cell-based.
Series [24] deals with MCF7. Description: Cellular uptake in human MCF7 cells assessed as increase of intracellular fluorescence after 20 mins using alexa fluor 488, phalloidin 488/525, mito-tracker 490/516 staining by fluorescence microscopic analysis. It counts as ADME, cell-based. The settings on record: mcf7, 20 min.

With `O=S(=O)([O-])c1cccc2cc(-c3c4nc(c(-c5cc6cccc(S(=O)(=O)[O-])c6s5)c5ccc([nH]5)c(-c5cc6cccc(S(=O)(=O)[O-])c6s5)c5nc(c(-c6cc7cccc(S(=O)(=O)[O-])c7s6)c6ccc3[nH]6)C=C5)C=C4)sc12.[Na+].[Na+].[Na+].[Na+]`, the Drug uptake result is given as “Active” in series [1]; “Not Active” in [5]; “Active” in series [9]; “Active” in [14]; “Not Active” in series [16]; “Active” with MCF7 [17]. For the same compound, the Drug uptake entry in the series on MCF7 [24] was “Active”. Also, the outcome with MCF7 [2], with MCF7 [8], in the series with MCF7 [11], in the series with MCF7 [15], in the series with MCF7 [19] and in the series on MCF7 [21] was Active. The result with MCF7 [23] was Active. The compound further had a half-maximal inhibitory concentration (IC50) with MCF7 [3] of 5 µM. The Activity entry in the series on MCF7 [4] was “Dose-dependent effect”; in the series with MCF7 [7] it was “Non-toxic”; with MCF7 [10], “Dose-dependent effect”; in the series on MCF7 [18], “Dose-dependent effect”. The outcome in the series with MCF7 [6], with MCF7 [13], with MCF7 [20] and in the series with MCF7 [22] was inactive. Besides, the “fold change (FC)” value in the series with MCF7 [12] was found to be 3.

In the series on MCF7 [3], `O=S(=O)(O)c1ccc(-c2c3nc(c(-c4ccc(S(=O)(=O)O)cc4)c4ccc([nH]4)c(-c4ccc(S(=O)(=O)O)cc4)c4nc(c(-c5ccc(S(=O)(=O)O)cc5)c5ccc2[nH]5)C=C4)C=C3)cc1` displayed an IC50 of 11.8 µM. Also, the Drug uptake result in series [5] was “Active”.
